# Test results as given in patent US11634458B2, “Peptides and compositions for use in cosmetics and medicine” (LIPOTRUE, S.L., priority 2018, dated 2023).
# Assays:
# [1] = test system: human muscle cells and motor neurons derived from hiPSC co-cultures; assay: Contraction frequency in human muscle cell / hiPSC motor neuron co-cultures; type: cell-based
# Procedure: The potential of said peptide Ac-SEQ ID NO: 8-NH2 to modulate the contraction frequency was evaluated in vitro using human muscle cells and motor neurons derived from hiPSC co-cultures, by means of live-imaging video of localized contractile muscle fibers recorded with an InCell 2200 automated microscope during 60 seconds, before and after treatment (after treatment, at each of the established timepoints).
# Human muscle cells were cultivated at a density of 1×10^6 cells in T75 cm^2 flasks and then transferred to 96 well plates for differentiation. Motor neurons derived from hiPSC were transferred onto the 96 well plates containing the muscle cells in a differentiation medium. Co-cultures were maintained for 10 days in order to generate neurons junctions with muscle fibers. Spontaneous contractions were observed within 5 days.
# Co-cultures were then treated with control medium (basal), 1 μM α-bungarotoxin, 0.5 mg/mL of acetyl hexapeptide-8 as a benchmark reference and 0.05 or 0.1 mg/mL of peptide Ac-SEQ ID NO: 8-NH2. Movies of co-cultures were recorded during 60 seconds before treatment and, after 30 minutes of incubation, movies were recorded again during 60 seconds. The culture plate was incubated again for 1 h 30 min with compounds (2 h of total incubation), and movies of co-cultures were recorded again during 60 seconds. The culture plate was incubated again for a total of 24 h with compounds and at the end of the incubation movies were recorded again during 60 seconds. Finally, compounds were washed out and a last recording after 24 h from said washed out of the compounds was done to assess an eventual recovery of muscle contractions (recovery).
# Frequencies of contraction were calculated before and after each incubation. For each culture condition, 6 wells were analyzed.
# [2] = target: Munc18/Syntaxin-1 (Homo sapiens, UniProt Q16623); assay: ELISA-based in vitro Munc18/Syntaxin-1 binding assay; conditions: peptide 0.1, 0.5 and 1 mM; Munc18 100 nM, Syntaxin-1 10 and 5 nM; control = 100% binding
# Procedure: The capacity of the peptides to inhibit Munc18 protein-protein interaction with Syntaxin-1, a SNARE complex protein, was functionally evaluated by means of an ELISA-based in vitro Munc18/Syntaxin-1 binding assay. Briefly, the above-mentioned peptides at 0.1, 0.5 and 1 mM were preincubated with their target protein Syntaxin-1 (GST-tagged) at 10 and 5 nM in buffer (20 mM Hepes, 150 mM NaCl, 2 mM MgC2, 2 mM DTT, 0.5% Triton-X100 and 0.5% non-fat milk) for 3 hours at RT. Meanwhile, His-tagged Munc18 was bound to a Nickel-coated 96-well plate at 100 nM and incubated at RT for 1.5 hours. Non-bound protein was subsequently washed away before blocking wells with non-fat milk in wash buffer (PBS+0.02% Triton-X100) for additional 30 minutes. GST-tagged Syntaxin-1 preincubated with the peptides was then added at 10 and 5 nM to the plate and incubated for 2 h at RT. Wells were washed three times with wash buffer before incubation with the primary antibody (GST tag polyclonal antibody—Thermofisher Scientific, Massachusetts, USA) for 45 minutes. Finally, after washing again, HRP-conjugated secondary antibody (Anti-Rabbit-IgG-HRP—Sigma, Missouri, USA) was added and incubated at RT. TMB substrate (3,3′,5,5′-Tetramethylbenzidine) was used to develop signal. […] Amount of binding of Syntaxin-1 protein to Munc18 protein was analysed by measuring absorbance at 450 nm.
# [3] = test system: collagen type I; assay: Collagen type I production by fibroblasts (competitive ELISA); type: cell-based, human; conditions: vs non-treated cells
# Procedure: The potential of said peptide Ac-SEQ ID NO: 8-NH2 to modulate the production of collagen type I as a potential improver of skin firming was evaluated in vitro using human skin fibroblasts.
# Cell were seeded in 96-well plates at 1×10^4 cells/well and maintained for 24 h at standard culture conditions (37° C., 95% humidity, 5% CO2). After 24 h incubation, medium was removed and new medium containing the peptide Ac-SEQ ID NO: 8-NH2 at 0.01, 0.05 or 0.1 mg/mL was added to the wells concentration. Treatment lasted 24 hours or 48 hours and at the end of the assay cell culture media were collected. Cells treated only with culture medium were used as basal control (non-treated cells).
# After 24 and 48 hours of treatment the amount of collagen type I produced and released by the cells (ex-novo collagen type I synthesis) was measured in cell culture medium by means of ELISA assay. The results of the test item were compared to basal control condition (non-treated cells). The treatments were performed in triplicate in three different experimental sessions.
# The determination of collagen type I synthesis was carried out by means of a competitive ELISA method. Samples were added to enzyme wells which were pre-coated with antibodies, then the recognition antigen labeled with Horseradish peroxidase (HRP) was added; after being incubated 1 hour at 37° C., both compete with solid phase antigen and form immune complex. After washing with phosphate buffer solution, the combined HRP catalyzes Tetramethylbenzidine (TMB) into blue, and turns into yellow by the action of acid; it has an absorption peak under 450 nm wavelength and its absorbance is negatively correlated with antigen density of sample. The plates were read by microplate reader.
# The quantitative determination uses a calibration curve made-up of known and growing concentrations of standard collagen type 1. The results are expressed as collagen type I concentration (μg/ml) in 50 μL cell culture medium.
# Three trials were performed for each determination in three different experimental sessions. The % variation in collagen type I content between negative controls and samples was calculated and a direct index of the efficacy of the peptide to increase collagen I synthesis was obtained.
# Sequence of Munc18/Syntaxin-1 (Q16623 whole entry): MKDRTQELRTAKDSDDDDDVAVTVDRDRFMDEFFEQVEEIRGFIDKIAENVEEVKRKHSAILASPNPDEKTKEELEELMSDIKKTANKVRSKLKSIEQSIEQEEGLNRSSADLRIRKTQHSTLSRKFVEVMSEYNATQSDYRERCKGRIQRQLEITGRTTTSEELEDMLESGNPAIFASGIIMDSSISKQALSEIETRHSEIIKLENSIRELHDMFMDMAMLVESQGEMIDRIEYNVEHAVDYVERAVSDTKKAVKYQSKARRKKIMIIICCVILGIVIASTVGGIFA
substance,measurement,setting,value
Ac-His-Ala-Leu-Arg-Phe-Trp-NH2 [Ac-SEQ ID NO: 8-NH2],muscle contraction frequency with regard to the basal non-treated cells,"[1]; 0.05 mg/mL, 24 h incubation",23%
same,muscle contraction frequency with regard to the basal non-treated cells,"[1]; 0.05 mg/mL, after 30 min",25%
same,muscle contraction frequency with regard to the basal non-treated cells,"[1]; 0.05 mg/mL, recovery 24 h after washout",65%
same,muscle contraction frequency with regard to the basal non-treated cells,"[1]; 0.1 mg/mL, 24 h incubation",10%
same,muscle contraction frequency with regard to the basal non-treated cells,"[1]; 0.1 mg/mL, after 30 min",18%
same,muscle contraction frequency with regard to the basal non-treated cells,"[1]; 0.1 mg/mL, recovery 24 h after washout",35%
same,Maximum inhibition of Munc18-Syntaxin-1 binding,[2],37%
same,increase of collagen type I production,"[3]; 0.01 mg/mL, 24 h",9%
same,increase of collagen type I production,"[3]; 0.01 mg/mL, 48 h",16%
same,increase of collagen type I production,"[3]; 0.05 mg/mL, 24 h",31%
same,increase of collagen type I production,"[3]; 0.05 mg/mL, 48 h",29.5%
same,increase of collagen type I production,"[3]; 0.1 mg/mL, 24 h",37.5%
same,increase of collagen type I production,"[3]; 0.1 mg/mL, 48 h",56.5%
